Article PMC9631063, “Schisandrin B Attenuates Diabetic Cardiomyopathy by Targeting MyD88 and Inhibiting MyD88‐Dependent Inflammation” (Advanced Science, 2022)

Molecular target: T1, rhMyD88(TIR) (Homo sapiens, UniProt Q99836)
T1 construct: gene MYD88; Results text calls it only rhMyD88
Experiment: isothermal titration calorimetry (Nano-ITC)
Assay type: binding

T1 sequence (Q99836 159-296 limits assumed): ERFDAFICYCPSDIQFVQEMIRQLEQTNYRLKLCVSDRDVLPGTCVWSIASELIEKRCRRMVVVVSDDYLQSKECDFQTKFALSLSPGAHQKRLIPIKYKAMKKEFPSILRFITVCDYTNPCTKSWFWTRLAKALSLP

Question: `COc1cc2c(c(OC)c1OC)-c1c(cc3c(c1OC)OCO3)CC(C)C(C)C2` (stereo not shown) [Schisandrin B] was tested. Which Kd did it give?
Answer: The Kd was 125 µM.
